Test results taken from patent US20140057997A1, “COSMETIC COMPOSITION COMPRISING 4-(3-ETHOXY-4-HYDROXYPHENYL)-2-BUTANONE AND A LIPOPHILIC SOLVENT” (L'OREAL, priority 2011, published 2014).

Experiment: Solubility stated in the introduction
Type: physicochemical

Measured: Solubility

CCOc1cc(CCC(C)=O)ccc1O [4-(3-ethoxy-4-hydroxyphenyl)-2-butanone, 4-(3-Ethoxy-4-hydroxyphenyl)-2-butanone]
very sparingly soluble: in 2-octyldodecanol | in glycerol | in water
